Active and inactive are the calls of the source. The rule behind the calls is not given here.
Test system: CCRIS mutagenicity, Ames/micronucleus/aberration tests
Assay: CCRIS mutagenicity studies
[1] = Test System: AMES SALMONELLA TYPHIMURIUM, Strain/Indicator: TA98, Metabolic Activation: NONE, Method: PREINCUBATION
[2] = Test System: AMES SALMONELLA TYPHIMURIUM, Strain/Indicator: TA100, Metabolic Activation: NONE, Method: PREINCUBATION
[3] = Test System: AMES SALMONELLA TYPHIMURIUM, Strain/Indicator: TA1535, Metabolic Activation: NONE, Method: PREINCUBATION
[4] = Test System: AMES SALMONELLA TYPHIMURIUM, Strain/Indicator: TA98, Metabolic Activation: NONE, Method: STANDARD PLATE
[5] = Test System: AMES SALMONELLA TYPHIMURIUM, Strain/Indicator: TA100, Metabolic Activation: NONE, Method: STANDARD PLATE

O.O.O.O.O.O.O=[N+]([O-])O.O=[N+]([O-])O.[Zn]
mutagenic call [1]: inactive; negative | mutagenic call (Test System: AMES SALMONELLA TYPHIMURIUM, Strain/Indicator: TA98, Metabolic Activation: RAT LIVER S-9, PHENOBARBITAL AND BETA-NAPHTHOFLAVONE, Method: PREINCUBATION): inactive; negative | mutagenic call [2]: inactive; negative | mutagenic call (Test System: AMES SALMONELLA TYPHIMURIUM, Strain/Indicator: TA100, Metabolic Activation: RAT LIVER S-9, PHENOBARBITAL AND BETA-NAPHTHOFLAVONE, Method: PREINCUBATION): inactive; negative | mutagenic call [3]: inactive; negative | mutagenic call (Test System: AMES SALMONELLA TYPHIMURIUM, Strain/Indicator: TA1535, Metabolic Activation: RAT LIVER S-9, PHENOBARBITAL AND BETA-NAPHTHOFLAVONE, Method: PREINCUBATION): inactive; negative | mutagenic call (Test System: AMES SALMONELLA TYPHIMURIUM, Strain/Indicator: TA1537, Metabolic Activation: NONE, Method: PREINCUBATION): inactive; negative | mutagenic call (Test System: AMES SALMONELLA TYPHIMURIUM, Strain/Indicator: TA1537, Metabolic Activation: RAT LIVER S-9, PHENOBARBITAL AND BETA-NAPHTHOFLAVONE, Method: PREINCUBATION): inactive; negative | mutagenic call (Test System: AMES SALMONELLA TYPHIMURIUM, Strain/Indicator: TA1538, Metabolic Activation: NONE, Method: PREINCUBATION): inactive; negative | mutagenic call (Test System: AMES SALMONELLA TYPHIMURIUM, Strain/Indicator: TA1538, Metabolic Activation: RAT LIVER S-9, PHENOBARBITAL AND BETA-NAPHTHOFLAVONE, Method: PREINCUBATION): inactive; negative | mutagenic call (Test System: E.COLI, Strain/Indicator: WP2UVRA, Metabolic Activation: NONE, Method: PREINCUBATION): inactive; negative | mutagenic call (Test System: E.COLI, Strain/Indicator: WP2UVRA, Metabolic Activation: RAT LIVER S-9, PHENOBARBITAL AND BETA-NAPHTHOFLAVONE, Method: PREINCUBATION): inactive; negative

CC(COc1ccccc1)N(CCCl)Cc1ccccc1 (centres undefined)
mutagenic call (Test System: AMES SALMONELLA TYPHIMURIUM, Strain/Indicator: TA97, Metabolic Activation: HAMSTER, LIVER, S-9, AROCLOR 1254 (10%), Method: PREINCUBATION): active; positive | mutagenic call (Test System: AMES SALMONELLA TYPHIMURIUM, Strain/Indicator: TA97, Metabolic Activation: NONE, Method: PREINCUBATION): active; positive | mutagenic call (Test System: AMES SALMONELLA TYPHIMURIUM, Strain/Indicator: TA97, Metabolic Activation: RAT, LIVER, S-9, AROCLOR 1254 (10%), Method: PREINCUBATION): active; positive | mutagenic call (Test System: AMES SALMONELLA TYPHIMURIUM, Strain/Indicator: TA98, Metabolic Activation: HAMSTER, LIVER, S-9, AROCLOR 1254 (10%), Method: PREINCUBATION): active; positive | mutagenic call [1]: active; positive | mutagenic call (Test System: AMES SALMONELLA TYPHIMURIUM, Strain/Indicator: TA98, Metabolic Activation: RAT, LIVER, S-9, AROCLOR 1254 (10%), Method: PREINCUBATION): active; positive | mutagenic call (Test System: AMES SALMONELLA TYPHIMURIUM, Strain/Indicator: TA100, Metabolic Activation: HAMSTER, LIVER, S-9, AROCLOR 1254 (10%), Method: PREINCUBATION): active; positive | mutagenic call [2]: active; positive | mutagenic call (Test System: AMES SALMONELLA TYPHIMURIUM, Strain/Indicator: TA100, Metabolic Activation: RAT, LIVER, S-9, AROCLOR 1254 (10%), Method: PREINCUBATION): active; positive | mutagenic call (Test System: AMES SALMONELLA TYPHIMURIUM, Strain/Indicator: TA1535, Metabolic Activation: HAMSTER, LIVER, S-9, AROCLOR 1254 (10%), Method: PREINCUBATION): active; positive | mutagenic call [3]: inactive; negative | mutagenic call (Test System: AMES SALMONELLA TYPHIMURIUM, Strain/Indicator: TA1535, Metabolic Activation: RAT, LIVER, S-9, AROCLOR 1254 (10%), Method: PREINCUBATION): active; positive

COP(=S)(OC)SCC(=O)N(C)C=O
mutagenic call (Test System: AMES SALMONELLA TYPHIMURIUM, Strain/Indicator: TA97A, Metabolic Activation: NONE, Method: STANDARD PLATE): inactive; negative | mutagenic call (Test System: AMES SALMONELLA TYPHIMURIUM, Strain/Indicator: TA97A, Metabolic Activation: PLANT, HOMOGENATE, S-14, Method: STANDARD PLATE): inactive; negative | mutagenic call (Test System: AMES SALMONELLA TYPHIMURIUM, Strain/Indicator: TA97A, Metabolic Activation: S-9, Method: STANDARD PLATE): inactive; negative | mutagenic call [4]: inactive; negative | mutagenic call (Test System: AMES SALMONELLA TYPHIMURIUM, Strain/Indicator: TA98, Metabolic Activation: PLANT, HOMOGENATE, S-14, Method: STANDARD PLATE): inactive; negative | mutagenic call (Test System: AMES SALMONELLA TYPHIMURIUM, Strain/Indicator: TA98, Metabolic Activation: S-9, Method: STANDARD PLATE): inactive; negative | mutagenic call [5]: inactive; negative | mutagenic call (Test System: AMES SALMONELLA TYPHIMURIUM, Strain/Indicator: TA100, Metabolic Activation: PLANT, HOMOGENATE, S-14, Method: STANDARD PLATE): inactive; negative | mutagenic call (Test System: AMES SALMONELLA TYPHIMURIUM, Strain/Indicator: TA100, Metabolic Activation: S-9, Method: STANDARD PLATE): inactive; negative | mutagenic call (Test System: AMES SALMONELLA TYPHIMURIUM, Strain/Indicator: TA1535, Metabolic Activation: NONE, Method: STANDARD PLATE): inactive; negative | mutagenic call (Test System: AMES SALMONELLA TYPHIMURIUM, Strain/Indicator: TA1535, Metabolic Activation: PLANT, HOMOGENATE, S-14, Method: STANDARD PLATE): inactive; negative | mutagenic call (Test System: AMES SALMONELLA TYPHIMURIUM, Strain/Indicator: TA1535, Metabolic Activation: S-9, Method: STANDARD PLATE): inactive; negative

CN(N=O)C(=O)Nc1ccccc1
mutagenic call (End Point: IN VITRO CHROMOSOMAL ABERRATIONS, Test System: CHINESE HAMSTER V79-E CELLS, Metabolic Activation: NONE): active; positive (structural changes)

O=C1C=C(c2nnc(NC(=O)c3ccccc3)s2)C(=O)C=C1Nc1ccc([N+](=O)[O-])cc1
mutagenic call [5]: active; positive

O=S(=O)(O)OCc1c2ccccc2c(CO)c2c1ccc1ccccc12
mutagenic call [1]: active; positive

CCCCc1c(N)ccc2ccccc12
mutagenic call [4]: inactive; negative | mutagenic call (Test System: AMES SALMONELLA TYPHIMURIUM, Strain/Indicator: TA98, Metabolic Activation: RAT LIVER S-9, AROCLOR, Method: STANDARD PLATE): active; positive | mutagenic call [5]: inactive; negative | mutagenic call (Test System: AMES SALMONELLA TYPHIMURIUM, Strain/Indicator: TA100, Metabolic Activation: RAT LIVER S-9, AROCLOR, Method: STANDARD PLATE): active; positive

Cc1cc2c(nc(N)n2C)c2nccnc12
mutagenic call (Test System: AMES SALMONELLA TYPHIMURIUM, Strain/Indicator: TA98, Metabolic Activation: RAT, LIVER, S-9, AROCLOR 1254, Method: STANDARD PLATE): active; positive

From PubChem BioAssay AID1259407 (Chemical Carcinogenesis Research Information System (CCRIS), 2018)
